*1 amine or outer side, *2 acyl side, *3 side chain or, on linkers, in order; H or OH if unused. Where a SMILES comes first, the peptide text is derived from it. Bridges are numbered along the chain shown (N, C = ends). Roman numbers before positions name the chains, in order. [ ]: non-standard residue; d: D form. Actinocin(9to1) = Cc1c2oc3c(C)ccc(C(=O)[*:1])c3nc-2c(C(=O)[*:2])c(N)c1=O; NMeV = CN[C@H](C(=O)O)C(C)C; Sar = CNCC(=O)O
Target: T1, PhoR (PhoR-GFP) (Mycobacterium tuberculosis, UniProt P71815)
T1 sequence (P71815 181-485 limits assumed): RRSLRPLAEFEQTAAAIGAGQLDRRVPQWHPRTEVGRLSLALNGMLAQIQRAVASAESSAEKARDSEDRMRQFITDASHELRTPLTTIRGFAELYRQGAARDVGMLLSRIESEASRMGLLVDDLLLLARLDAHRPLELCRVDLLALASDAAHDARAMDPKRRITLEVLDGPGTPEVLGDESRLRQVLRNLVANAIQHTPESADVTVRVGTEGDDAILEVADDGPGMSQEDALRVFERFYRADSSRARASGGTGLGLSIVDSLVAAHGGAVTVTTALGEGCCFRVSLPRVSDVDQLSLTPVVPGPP
Assay: radioactive dot-blot autophosphorylation assay
Type: biochemical
Conditions: read-out: % inhibition at 10 μM

For `Cc1c2oc3c(C)ccc(C(=O)N[C@@H]4C(=O)N[C@H](C(C)C)C(=O)N5CCC[C@H]5C(=O)N(C)CC(=O)N(C)[C@@H](C(C)C)C(=O)O[C@@H]4C)c3nc-2c(C(=O)N[C@@H]2C(=O)N[C@H](C(C)C)C(=O)N3CCC[C@H]3C(=O)N(C)CC(=O)N(C)[C@@H](C(C)C)C(=O)O[C@@H]2C)c(N)c1=O` [Actinomycin D] (I: T[dV]P[Sar][NMeV] / II: T[dV]P[Sar][NMeV]; ester I:1-I:C, II:1-II:C; linker I:N-II:N via Actinocin(9to1)), the inhibition at 10 µM was > 50%.
